Measurements published in patent US20030176651A1, “Multiprotein-complex comprising a nmda receptor and uses thereof” (priority 2000, published 2003).
“Also recorded” adds a separate entry of the source. Where two headings read alike, the source gives them in different places.

Legend:
[1] = system: mice with chronic constriction injury (CCI) to the sciatic nerve / naive mice; test: Mechanical allodynia (von Frey filaments, paw withdrawal threshold) after intrathecal drug treatment; format: in vivo, mouse; conditions: for reversal of mechanical allodynia ipsilateral to CCI: wild type mice, intrathecal in 10 μl, (R)-CPP 100 ρmol, peptide 1 n mole, K-93/KN-92 120 pmol
Experimental: (§1) Animals were initially anaesthetised with sodium pentobarbital (Sagatal; 0.01 ml/kg (1:4 in saline, i.p.; Rhône Mérieux, UK) and this was then supplemented with halothane O2 (Zeneca, UK). Under aseptic conditions, using a variation of the method of Bennett and Xie for rat [G. J. Bennett and Y. K. Xie, Pain 33, 87 (1988)], the sciatic nerve was exposed at the mid-thigh level proximal to the sciatic trifurcation. Three chromic catgut ligatures (5.0; Ethicon, Edinburgh) separated by 1 mm were tied loosely to constrict the […] as viewed under 40× magnification. Vascular supply was not compromised. The overlying muscle and skin were sutured and the animals were placed in a recovery cage.
(§2) Animals were tested for 6 days prior to surgery in order to establish stable baseline levels for each test and then every one or two days post-operatively (PO). The responses were compared to the average of the pre-surgery values and the contralateral control. The animals were examined daily to ensure that no autotomy was present.
Mechanical allodynia was measured as the withdrawal threshold to calibrated Semmes-Weinstein von Frey filaments (Stoelting, Wood Dale, Ill.) with a bending force of 0.22-84.96 g. The mice were placed in a small rectangular cage. The filaments were applied to the mid-plantar surface of the hindpaw from beneath until the filament started to bend. This stimulus was repeated 8-10 times at 1-2 sec intervals for both the injured and uninjured hindpaws. The mean threshold required to elicit a withdrawal response was recorded. The filaments were applied in ascending order, and a response was characterised as a brief paw flick. The withdrawal threshold was defined from the lower of two consecutive von Frey filaments that elicited a response. Data were expressed as the threshold indentation pressure (i.e. the bending force/the cross-sectional area at the tip of the filament). Mean basal values for pre-operative paw withdrawal threshold were typically around 600 mN.mm^−2.
(§3) Baseline measurements were recorded for thermal hyperalgesia (Hargreaves' test) and mechanical allodynia (von Frey filament test) in mice which had undergone the chronic constriction injury and were at the peak of neuropathy. Mice were anaesthetised with halothane and O2. Drugs were injected intrathecally, in 10 μl saline, at the L4 level of the spinal cord using a 25 μl microsyringe [J. L. Hylden and G. L. Wilcox, Eur. J. Pharmacol., 67, 313 (1980)]. The experimenter was blind to the content of the injections so as to eliminate bias, and dye injections (Pontamine Sky Blue) were performed to determine the site of injection. 15 minutes following injection, mice were re-tested using the same procedures and measurements were taken to determine the effects of drug on hyperalgesia and allodynia. Animals were tested every 5 minutes until readings returned to baseline levels.

[2] = system: CaM kinase II; test: Ex vivo CaM kinase II activity assay after topical application to dorsal spinal cord; format: in vivo, mouse; conditions: for activation of constitutive CaM kinase II activity, wild type versus PSD-95 mutant: naive mice, topical 15 min, NMDA 500 μM with glycine 100 μM, ionomycin 10 μM
Experimental: Following lumbar L3-6 laminectomy under anaesthesia, mice, which in some cases had previously received chronic constriction injury, were treated by topical application of agents to the dorsal surface of the spinal cord. […] Constitutive (autophosphorylated) and Ca^2+/CM-elicited activity of CaM II kinase [P. I. Hanson et al., Neuron 3, 59 (1989); P. M. Jones and S. J. Persaud, Am. J. Physiol. 274, E708 (1998)] were measured by the following procedure. Samples were rapidly homogenised on ice in 20 mM Na HEPES pH 7.5 with 5% glycerol, 1 mM EGTA, 1 mM dithiothreitol, 1 mM AEBSF, 2 μg.ml^−1 aprotinin, 10 μg.ml^−1 leupeptin, 2 μg.ml^−1 pepstatin, 50 μg.ml^−1 soybean trypsin inhibitor, 25 mM Na β-glycerophosphate, 1 mM Na orthovanadate, 1 mM Na F, 1 μM calyculin A, 1 μM cypermethrin. Following a 30 min incubation on ice with 0.25% CHAPS and clarification, samples were incubated at 4° C. for 2 hours with 3 μg.ml^−1 mouse anti-α-CaM kinase II IgG (clone CBα-2; Zymed) and then with excess Protein G-Sepharose for 1 hour. Aliquots of washed immunoprecipitate were incubated for 20 min at 30° C. (linear range of assay) with 50 μM autocamtide-2, 50 μM ATP (with [^33P] γ-ATP to 0.25 μCi/tube), 10 mM MgCl2 and 8 μg.ml^−1 purified bovine calmodulin (Sigma), in the presence of 0.5 μM PKC-α19-31 and 0.5 μM PKI6-22 amide (to suppress any PKC and PKA-mediated activity respectively) before termination with cold TCA (to 10%), centrifugation and spotting of the supernatant onto P81 phospho-cellulose paper.
Samples were washed extensively in 75 mM H3PO4 and dried before scintillation counting. Constitutive and maximal Ca^2+-evoked activity were measured in the absence and presence of 2 mM CaCl2 respectively. Zero time and substrate-free blanks were less than 2% of maximal activity. Parallel immunoblotting experiments were attempted with phospho-specific antisera for Thr^286-CaM kinase II (the key autophosphorylation site), but gave insufficient signal:noise ratios for further use.

[3] = system: mice with chronic constriction injury (CCI) to the sciatic nerve / naive mice; test: Thermal hyperalgesia (Hargreaves, paw withdrawal latency) after intrathecal drug treatment; format: in vivo, mouse; conditions: for reversal of thermal hyperalgesia ipsilateral to CCI: wild type mice, intrathecal in 10 μl, (R)-CPP 100 ρmol, peptide 1 n mole, K-93/KN-92 120 pmol
Experimental: as §1, §2
Thermal hyperalgesia was monitored using Hargreaves' Thermal Stimulator (Linton Instruments, USA). The stimulus was applied to the mid-plantar surface of the hind paw. The withdrawal response was characterised as a brief paw flick. The latency of withdrawal was recorded for the ipsilateral (injured) and the contralateral hindpaws. The means of between 5 and 10 readings were recorded at 3-5 min intervals to ensure no hypersensitivity to the test was established. Mean basal values for pre-operative paw withdrawal latency were typically around 5 sec.
as §3

[4] = target: multi-protein complex comprising NMDA receptor (NR1, NR2B, PSD-95) (Mus musculus, UniProt P35438+Q01097); test: Ligand affinity chromatography of mouse brain DOC extracts (SDS-PAGE, Western blotting); format: binding
[5] = system: mouse brain proteins / multi-protein complex (PSD-95, NMDA receptor); test: Peptide affinity chromatography of mouse brain DOC extracts (SDS-PAGE); format: binding; conditions: 0.5 ml mouse brain DOC extract, Coomassie stained SDS-PAGE
Experimental: Peptides were solubilised and coupled to affigel-10 in methanol at 5 mg/ml resin for 3 days at 4° C. with constant agitation and residual active side chains were blocked with 0.5 M Tris pH8.8 for 1 day at 4° C. followed by transfer of the resin to PBS.
Initial small-scale experiments were done using 0.5 ml brain DOC extract and 25 μl affigel-10 immobilised peptides. The resins were washed four times with 0.5 ml cold DOC buffer after an incubation period of four hours at 4° C. with constant agitation followed by SDS-PAGE analysis. Large scale samples were prepared by adding 0.5 ml NR2B 1477-1482 peptide derivatised affigel-10 with 50 ml DOC extract followed by an incubation overnight at 4° C. with constant agitation. The resin was then transferred into a chromatography column and washed to baseline with approximately 100 ml cold DOC buffer. Bound proteins were released from the resin by boiling for 30 minutes in 4% SDS-containing buffer and 20 μl aliquots were subsequently used for SDS-PAGE analysis and Western blotting (see Example 2).

[6] = system: hippocampal CA1 region slices (MEK inhibitor)
Source text: Low resistance glass microelectrodes filled with ACSF were placed into stratum radiatum of the hippocampal CA1 region to record field excitatory postsynaptic potentials (fEPSPs) evoked by presynaptic stimulation pulses delivered once every 50 seconds to the Schaffer collateral/commissural fibers via a bipolar nichrome wire stimulating electrode. At the beginning of each experiment the intensity of presynaptic fiber stimulation was adjusted to evoke fEPSPs that were approximately half of the maximal fEPSP amplitude that could be evoked by strong intensity stimulation. High-frequency stimulation-induced LTP was elicited using two trains of 100 Hz stimulation (1 sec. in duration) delivered with an inter-train interval of 10 seconds. To elicit saturating levels of LTP we delivered 6, one-second-long trains of 100 Hz stimulation with an inter-train interval of 5 minutes. For statistical comparisons (unpaired t-tests, two-tailed, N=number of animals) we compared the average amount of potentiation present 55 to 60 minutes after the first high-frequency stimulation train or 40 to 45 minutes after low-frequency trains of stimulation. […] Similar results were obtained with both internal solutions and the results were combined. […] All experiments and initial data analysis were performed blind except for experiments done on 3 H-Ras^−/− mutant mice. […] All values are reported as mean±SEM.

[7] = system: NMDA receptors; conditions: rats, cited from earlier work
[8] = CCI wild type mice, intrathecal
[9] = ligand coupled to PharmaLink resin
[10] = naive PSD-95 mutant mice, intrathecal NMDA
[11] = naive wild type mice, intrathecal NMDA 0.25 nmol in 10μl

Compound: O=C(O)[C@H]1CN(CCCP(=O)(O)O)CCN1 [(R)-CPP]
- effect on contralateral responses (mechanical) [1, 8]: In no case was there any significant effect
- effect on paw withdrawal threshold in PSD-95 mutants ([1]; PSD-95 mutant mice with CCI, intrathecal): unaffected
- effect in naive or sham-operated mice ([1]; naive or sham-operated wild type or PSD-95 mutant mice (data not shown)): had no effect
- reversal of mechanical allodynia ipsilateral to CCI [1]: completely reversed
- effect on elevated proportion of constitutive CaM kinase II activity ipsilateral to CCI ([2]; wild type mice with CCI, topical application): entirely prevented
- effect on contralateral responses (thermal) [3, 8]: no effect
- effect on paw withdrawal latency in PSD-95 mutants ([3]; PSD-95 mutant mice with CCI, intrathecal 100 ρmol in 10 μl): had no effect; also recorded: unaffected
- reversal of thermal hyperalgesia ipsilateral to CCI [3]: completely reversed

Compound: NC(=O)C[C@H](N)C(=O)O [L-Asparagine]
- proteins / multi-protein complex retained on immobilised ligand ([4]; ligand coupled to affigel-10): bound to an array of protein species

Compound: NC(N)=NCCCCN=C(N)N [Arcaine]
- proteins / multi-protein complex retained on immobilised ligand ([4]; ligand coupled to affigel-10): substantial amount of protein did interact with immobilised Arcaine, including NR1, NR2B and PSD-95

Compound: KLSSIESDV [NR2B (1474-1482), NR2B C-terminal peptide]
- proteins bound by peptide covalently linked to affigel-10 [5]: did not show any binding pattern similar to the slightly shorter one

Compound: COc1ccc(S(=O)(=O)Nc2ccccc2CN(C)C/C=C/c2ccc(Cl)cc2)cc1 [KN92]
- reversal of thermal hyperalgesia ipsilateral to CCI [3]: to a smaller extent

Compound: COc1ccc(S(=O)(=O)N(CCO)c2ccccc2CN(C)C/C=C/c2ccc(Cl)cc2)cc1 [KN93]
- reversal of mechanical allodynia ipsilateral to CCI [1]: reversal
- reversal of thermal hyperalgesia ipsilateral to CCI [3]: reversal

Compound: SIESDV [NR2B (1477-1482)]
- proteins bound by peptide covalently linked to affigel-10 [5]: revealed several bands at 75 and 100 kDa; also recorded: capable of not only purifying PSD-95 and other members of this family, but also the NMDA receptor itself

Compound: NC1CCN(O)C1=O (stereo not drawn) [HA-966, 3-amino-1-hydroxy-2-pyrrolidone]
- proteins / multi-protein complex retained on immobilised ligand [4, 9]: found positive for NMDA receptor channel components and the attached PSD-95
- proteins / multi-protein complex retained on immobilised ligand ([4]; ligand coupled to affigel-10): found positive for NMDA receptor channel components and the attached PSD-95

Compound: RRAIEREEGQLQLCSRHRES [NR1 C-terminal peptide, last 20 amino acids of NR1, 919-938]
- proteins bound by peptide covalently linked to affigel-10 [5]: showed no evident binding pattern

Compound: CC(C(O)c1ccc(O)cc1)N1CCC(Cc2ccccc2)CC1 (stereo not drawn) [Ifenprodil]
- proteins / multi-protein complex retained on immobilised ligand [4]: capable of binding the multi-protein complex and many other molecules, though to a slightly lower degree than the Arcaine resin

Compound: NC(CCCP(=O)(O)O)C(=O)O [D-AP5]
- proteins / multi-protein complex retained on immobilised ligand [4, 9]: bound to an array of protein species
- proteins / multi-protein complex retained on immobilised ligand ([4]; ligand coupled to affigel-10): ineffective in the isolation of any protein

Compound: N#CC(=C(/N)Sc1ccccc1N)/C(C#N)=C(\N)Sc1ccccc1N [U0126]
- fEPSPs after 5 Hz stimulation ([6]; slices from PSD-95 mutant mice continuously exposed to U0126, N=14 slices): 270±12 % of baseline
- effect on induction of LTP by a brief train of 5 Hz stimulation ([6]; wild type slices, 20 μM): strongly suppressed the induction of LTP
- fEPSPs after 5 Hz stimulation ([6]; wild type slices, continuously bathed in U0126 (20 *M) at least 60 min before 5 Hz stimulation, N=11 slices): 137±9 % of baseline

Compound: C[C@H](CCC(=O)O)C[C@H](C)C[C@H](C)C(=O)/C=C(\O)[C@H](C)C[C@H](C)C/C=C/[C@@H](C)[C@@H](O)[C@@H](C)[C@@H](O)C[C@@H]1CC[C@@](C)([C@H]2CC[C@@](C)([C@@H](C)O)O2)O1 [ionomycin]
- activation of constitutive CaM kinase II activity, wild type versus PSD-95 mutant [2]: equivalent

Compound: CN[C@H](CC(=O)O)C(=O)O [NMDA, N-methyl-D-aspartate]
- proteins / multi-protein complex retained on immobilised ligand [4]: only marginal quantities of the multi-protein complex were retained
- effect on mechanical behavioural responses in PSD-95 mutants [1, 10]: unaffected
- induction of mechanical allodynia-like behavioural change [1, 11]: bilaterally mimicked
- activation of constitutive CaM kinase II activity, wild type versus PSD-95 mutant [2]: equivalent
- effect on thermal behavioural responses in PSD-95 mutants [3, 10]: unaffected
- induction of thermal hyperalgesia-like behavioural change [3, 11]: bilaterally mimicked

Compound: myristoyl-autocamtide 2-related inhibitory peptide
- reversal of mechanical allodynia ipsilateral to CCI [1]: reversal
- reversal of thermal hyperalgesia ipsilateral to CCI [3]: reversal

Compound: COc1ccc2c(c1)[C@]13CCCC[C@@H]1[C@H](C2)N(C)CC3 [Dextromethorphan]
- proteins / multi-protein complex retained on immobilised ligand [4]: only marginal amounts of both NR1 and NR2B were present, but surprisingly a comparatively large amount of PSD-95

Compound: NC(CCCP(=O)(O)O)C(=O)O (stereo not drawn) [AP5]
- effect on new learning ([7]; both types of task): severely impaired
- effect on retention of a previously learned olfactory discrimination or watermaze task [7]: no effect
